The values below come from patent US9066516B2, “Uses of thaxtomin and thaxtomin compositions as herbicides” (priority 2008, dated 2015).

One test deals with red stem. Nature of the test: Greenhouse test cyhalofop + thaxtomin A (Example 7). The class given is in vivo. Particulars: Cyhalofop 6.5 oz/acre, no thx A; 21-day evaluation. The method, then: (§1) Cyhalofop (2-[4-(4-cyano-2-fluorophenoxy)phenoxy]propanoic acid, butyl ester) is also mixed together with adjuvant containing ethyl oleate, polyethylene dialky ester and ethoxylated nonylphenol (2.5% v/v) and increasing concentrations of thaxtomin A (purified from the ATCC strain 49003) at concentrations 0.1, 0.2 and 0.4 mg/ml. The concentrations of the 2-[4-(4-cyano-fluorophenoxy)phenoxy]propanoic acid, butyl ester before dilution are 29.6% (2.38 lb/gal) and 21.7% (2 lb/gal), respectively. The effect of these mixtures on the growth of common water plantain, red stem, smallflower sedge and sprangletop is determined in the greenhouse. Similarly, rice plants of variety M104 are grown and tested for phytotoxic effects, and all plants are evaluated 7, 14, and 21 days after treatment.

The next test has as its system sprangletop. The description is as above. As to conditions: Cyhalofop 6.5 oz/acre, no thx A, 21-day evaluation. The class given is in vivo. On the procedure:
as §1

Another test deals with common water plantain. Described as above. The class given is in vivo. Particulars: Cyhalofop 6.5 oz/acre, no thx A; 21-day evaluation. On the procedure:
as §1

The subject of another test is smallflower sedge. The test is described as above. It counts as in vivo. As to conditions: Cyhalofop 6.5 oz/acre, no thx A, 21-day evaluation. On the procedure:
as §1

A further test deals with sedge. Nature of the test: Greenhouse synergy test MBI-005 + commercial herbicides (Example 11). The class given is in vivo. Particulars: cyhalofop 1.176 mg/mL, 14 days. On the procedure:
(§2) The test species barnyard grass, ragweed, sedge, and broad-leaf mustard were used for the valuation of synergy between MBI-005 and the rice herbicides clomazone, penoxsulam, cyhalofop, fenoxaprop-p-ethyl, bispyribac-sodium, thiobencarb, and propanil.
(§3) There were 3 replicates per treatment which were sprayed with approximately ⅔ ml per replicate. The treatments were completely randomized and kept in a greenhouse at 25° C. The efficacy was rated at 7 and 14 days post treatment.

For the next test, the system named is broad-leaf mustard. Described as above. It counts as in vivo. Particulars: 14 days. On the procedure: as §2, §3
The test system of test [1] is barnyard grass. The test is described as follows: Post-emergent MBI-005 + Propanil on barnyard grass (Example 20). It counts as in vivo. Particulars: Echinochloa crus-galli, post-emergence, 336 h; 25% Propanil (of label rate); 14 days; read-out: Observed Average % Efficacy (E). The method, then:
Negative controls were sprayed with water. Pots were randomly placed in a growth room at 25° C. and 50% RH, and watered as necessary. Treatments were replicated three times and evaluated at 7 and 14 days for visual % damage, with 0% indicating no damage and 100% indicating plant death.
(§4) Synergy was calculated as the ratio of observed (E) to expected (E/Ee) percent control using Colby's formula.

In test [2] the test system is barnyard grass. The test is described as follows: Greenhouse synergy test MBI-005 + commercial herbicides (Example 11). It counts as in vivo. As to conditions: propanil 0.365 mg/mL, 14 days. The method, then: as §2, §3
The subject of test [3] is small flower umbrella sedge. The test is described as follows: Post-emergent MBI-005 + rice herbicides on smallflower umbrella sedge (Example 19). Particulars: Propanil .5% v/v of label rate; 14 days. It counts as in vivo. The method, then:
Twenty seedlings in 2.5 cm square pots containing plant growth mix were sprayed to full coverage using a hand sprayer. Negative controls were sprayed with water. Pots were randomly placed in a growth room at 25° C. and 50% RH, and watered as necessary. Treatments were replicated three times and evaluated at 7 and 14 days for visual % damage, with 0% indicating no damage and 100% indicating plant death.
as §4

For test [4] the following is noted: in vivo; cited from earlier work.

In the case of `CCCCOC(=O)C(C)Oc1ccc(Oc2ccc(C#N)cc2F)cc1` (stereo not shown) [Cyhalofop, 2-[4-(4-cyano-2-fluorophenoxy)phenoxy]propanoic acid, butyl ester], the Redstem % control in the test on red stem is 75%. The Sprangletop % control in the test with sprangletop is 90%; in the test on sprangletop (listed as Clincher CA), “good efficacy against grass weeds”. Also, the Waterplantain % control in the test on common water plantain was found to be 8%. Besides, the Sedge % control in the test on smallflower sedge was 0%; in the test on smallflower sedge (listed as Clincher CA), “poor on sedges”. Besides, the “% Control Product” value with sedge was 3.3%; in the test on broad-leaf mustard (cyhalofop 0.051 mg/mL), 11.7%.
On to `CCC(=O)Nc1ccc(Cl)c(Cl)c1` [propanil], for which the Observed average % efficacy (visual damage) in the test on barnyard grass [1] is 32.5%. The “% Control Product” value with broad-leaf mustard (propanil 0.036 mg/mL) was determined as 1.67%; in the test on barnyard grass [2], 32.5%. The “% control AI” value in test [3] was determined as 62.5%.
Consider `CN1C(=O)[C@H](Cc2c[nH]c3cccc([N+](=O)[O-])c23)N(C)C(=O)[C@@H]1Cc1ccccc1` [thaxtomin D, reference compound], for which the “activity as pre and post emergent, non-systemic herbicides” value in [4] was “marked activity”.
